Assay results from paper PMC10468942, “A Fluorescent Probe as a Lead Compound for a Selective α-Synuclein PET Tracer: Development of a Library of 2-Styrylbenzothiazoles and Biological Evaluation of [^18F]PFSB and [^18F]MFSB” (ACS Omega, 2023).
Where “and” joins values, the source holds several entries; their conditions need not be identical. Equal values may be shown once. Read-outs that look alike come from different tables or passages of the source.

Assays:
αSYN fibrils [1] = biological target: T1, αSYN fibrils (Homo sapiens, UniProt P37840); test: [^3H]PiB competition binding assay on αSYN fibrils
T1 construct: cloning of the DNA construct encoding full-length αSYN into the pET-22b vector; made in house; host or cells: Escherichia coli BL21
Protocol: Following the cloning of the DNA construct encoding full-length αSYN into the pET-22b vector and its transformation into BL21 cells, the expression of human αSYN from a prokaryotic host was induced overnight in Escherichia coli at 20 °C with 0.5 mM IPTG. The cells were harvested by centrifugation, resuspended in 20 mM Tris-HCl pH 7.6, 25 mM NaCl and 1× complete protease inhibitor (Roche, Basel, Switzerland), and lysed by sonication. […] Anion exchange chromatography (HiTrap Q, GE Healthcare, Chicago, Illinois) was used to trap the produced αSYN, which was eluted with NaCl 0.1 M over 20 column volumes. Fractions containing αSYN were concentrated and further purified through a Superdex 75 SEC column equilibrated with PBS. […] A 4 mg/mL solution of αSYN in 20 mM K3PO4 pH 9.1 was placed in an orbital shaker at 37 °C, 1000 rpm for 5 days to prepare P91s. The assemblies were either sonicated with cycles of 20 s on and 10 s off at 50% amplitude (Q800R3, Qsonica) for a total of 10 min or directly aliquoted in volumes of 10 μL each stored at −80 °C until use. […] The final products were aliquoted, frozen on dry ice, and stored at −80 °C until use.
Concentrations of αSYN and Aβ1-42 fibrils were as described above.
Plates were incubated on a shaker (MaxQ 6000, Thermo Fisher Scientific, Inc., Marietta, OH) at 50 rpm for 2 h at 37 °C, covered by removable sealing tapes (PerkinElmer, Waltham, MA). Vacuum filtration and read-out were performed as previously reported.[17] […] Data points were fitted using nonlinear regression analysis in GraphPad Prism (GraphPad Software, Inc., Version 8.4.0, La Jolla).

αSYN fibrils [2] = biological target: αSYN fibrils; set-up: method as in PMID 33819025; conditions: fluorescence titration; cited from earlier work
[3] = test system: αSYN pathology in human brain slices (MSA, PD, AD, control); test: In vitro autoradiography on human brain slices; format: binding; conditions: 10 nM tracer; for AD/frontal cortex SB ratio: AD sample vs frontal cortex control
Protocol: Post-mortem human brain slices (10 μm thickness) were obtained from the subject cases and were analyzed by the Neurobiobank München (NBM, Munich, Germany), where tissues were collected on the basis of written informed consent according to the guidelines of the ethics committee of the Ludwig Maximilians University of Munich, Germany (# 345-13). The use of brain tissue samples in this study was approved by the ethics committee of the Faculty of Medicine at the University of Tuebingen (Ethics approval number: 813/2018BO2). Table S4 (Supporting Information) summarizes the information of the subjects from which samples were obtained and used in the experiment.
For autoradiography, frozen brain slices were thawed for 1 h before preincubation in bovine serum albumin (BSA) buffer for 25 min at room temperature. To determine total binding (TB), brain slices were incubated with the tracer (10 nM [^18F]PFSB, 10 nM [^18F]MFSB). Incubation of consecutive slices with the corresponding nonradioactive compounds (10 μM PFSB, 10 μM MFSB) was performed to determine nonspecific binding (NSB). The nonradioactive compounds were prepared by dissolving in DMSO to 10 mM, which yielded a DMSO concentration of ≤0.1% in the final solution. Incubation was carried out for 1 hour at room temperature with subsequent washing in cold BSA buffer (3 × 10 min) followed by three dippings in cold deionized water. After drying under an IR lamp, brain slices were exposed to a storage phosphor screen (Molecular Dynamics, Caesarea, Israel) for 18 h, which was then scanned in a phosphor imager (STORM 840, Molecular Dynamics, Sunnyvale, CA).
Quantitative data analysis was performed by drawing four regions of interest (ROIs) in relevant areas of the slice and one ROI next to it for background subtraction (Figures S7 and S8; ImageJ 1.8.0_172, National Institute of Health, Bethesda, MD).[28] Specific binding (SB) is obtained by subtracting NSB from TB. The SB disease/SB control ratio was calculated by dividing by the SB in diseased tissues with the respective SB in control tissues.

[4] = In vivo dynamic PET/MR imaging in healthy wild-type mice; set-up: species or system C57BL/6J mice
Protocol: The animal experiments were performed in compliance with the European directives on the protection and use of laboratory animals (Council Directive 2010/63/UE) and the German animal welfare act with approval from the local authorities (Regierungspräsidium Tuebingen, R3/19G). Healthy wild-type female C57BL/6J mice (20.3 ± 0.9 g; 9 weeks old) purchased from Charles River Laboratories (Sulzbach, Germany) were maintained in our vivarium on a 12:12 hour light–dark cycle, and were kept at a temperature of 22 °C with 40–60% humidity and free access to a standard diet and tap water.
The mice (n = 3) were anesthetized with 1.5% isoflurane evaporated in 100% oxygen at a flow rate of 0.8 L/min. A body temperature of 37 °C was maintained using a feedback temperature control unit. PET imaging studies were performed on Inveon dedicated microPET system (Inveon D-PET, Siemens, Knoxville, TN). Five seconds after the start of PET acquisition, the mice were injected intravenously with 9.9 ± 0.6 MBq of [^18F]MFSB (Am = 46.2 ± 2.5 GBq/μmol at the time of injection). The 1 h dynamic acquisitions were divided into 39 time frames (12 × 5 s, 6 × 10 s, 6 × 30 s, 5 × 60 s, and 10 × 300 s). A 13-min transmission measurement with a cobalt-57 point source was performed for attenuation correction. Subsequently, an anatomical MR scan with a 7 Tesla MR scanner (ClinScan, Bruker BioSpin MRI GmbH, Ettlingen, Germany) using a rat whole-body volume coil and the Paravision software (v6.0.1, Bruker, Ettlingen, Germany) using a T2-weighted Turbo-RARE MRI sequence.
The PET image was reconstructed via the OSEM3D/SP-MAP reconstruction algorithm and coregistered to the whole-body MRI scan. Volumes of interest (VOIs) were hand-drawn for the relevant organs based on the MR anatomy in PMOD (PMOD Technologies, Faellanden, Switzerland, Version 4.2) and VOIs at different regions in the mouse brain were extracted using the atlas provided by PMOD to calculate the respective time–activity curves (TACs). Standardized uptake values (SUVs) were calculated as a ratio of the detected activity with injected activity and weight (SUV = (TAC (kBq/cc)/inj. activity (kBq)) × weight (g)).

[5] = mice n = 3, i.v., 60 min dynamic PET

For `CN1CCN(c2ccc(C=Cc3sc4ccccc4[n+]3C)cc2)CC1` [RB2, 3-Methyl-2-(4-(4-methylpiperazin-1-yl)styryl)benzo[d]thiazol-3-ium Iodide, reference compound], the Ki (αSYN fibrils [1]; Ki-RB2, αSYN [^3H]PiB competition) is listed as 333 µM, the Ki (αSYN fibrils [1]; methylated compounds, Table 2, two values in a cell = single determinations, read-out: Ki) is listed as greater than 0.4 µM and the Kd (αSYN fibrils [2]) is listed as 4.4 ± 0.5 µM.

In the case of `[18F]c1ccc2nc(/C=C/c3ccc(N4CCOCC4)cc3)sc2c1` [[^18F]MFSB], the “AD/frontal cortex SB ratio” value [3] is reported as “remained favorable”, the “SUV, TAC peak value, blood” value [4, 5] is reported as 6.94 ± 0.71 and the “SUV, TAC peak value, brain” value [4, 5] is reported as 1.79 ± 0.02. For the same molecule, the “SUV, TAC peak value, kidney” value [4, 5] was 2.70 ± 0.27, the “SUV, TAC peak value, liver” value [4, 5] was 5.00 ± 0.35 and the “SUV, TAC peak value, lung” value [4, 5] was 4.43 ± 0.33. For the same molecule, the “SUV, TAC peak value, bone” value ([4]; mice n = 3, i.v., at 60 min) was 1.52 ± 0.20, the “SUV peak in the cerebellum” value ([4]; mice, PET) was “up to 1.76” and the “SUV peak in the frontal cortex” value ([4]; mice, PET) was “up to 1.58”. For the same molecule, the SUVbrain/SUVblood ([4]; mice, PET) was 2.7, the “Time to peak, bone” value ([4]; mice, PET TAC) was 60 min and the “Time to peak, brain” value ([4]; mice, PET TAC) was 25 min. For the same molecule, the “Time to peak, kidney” value ([4]; mice, PET TAC) was 110 s, the “Time to peak, liver” value ([4]; mice, PET TAC) was 90 s and the “Time to peak, lung” value ([4]; mice, PET TAC) was 15 s. The “AUC, brain” value ([4]; mice, PET TAC over 60 min) was 98.13 ± 1.30, the “AUC, kidney” value ([4]; mice, PET TAC over 60 min) was 102.27 ± 1.33 and the “AUC, liver” value ([4]; mice, PET TAC over 60 min) was 188.40 ± 6.15. The “AUC, lung” value ([4]; mice, PET TAC over 60 min) was 51.22 ± 3.94.

In the case of `[18F]c1ccc2nc(/C=C/c3ccc(N4CCCCC4)cc3)sc2c1` [[^18F]PFSB], the “AD/frontal cortex SB ratio” value [3] is reported as 1.06 and the “specific binding signal intensity ratio MSA / control of the same brain area” value ([3]; MSA patient slices vs control, n = 1) is reported as 3.7 and 4.2.
